Measurements: the supplement of paper PMC10307832

What was measured:
Assay in all cases: relative viability (nuclei count vs DMSO), 5 days (fraction); higher = more cells survive
NCI-H1648 = system: NCI-H1648
In short: (§1)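 For relative viability, nuclei counts in treated wells were divided by those in vehicle wells. Lung cancer cell lines had been pin-tool dosed in 1536-well plates the day after seeding and cultured for 5 days, then fixed and stained in one step (final 0.05% Triton X-100, 1% formaldehyde, 1 ug/ml Hoechst) and imaged at 4×. Doses were one drug alone or a fixed anchor-drug dose plus five library-drug doses (not always all listed) in √10 steps, and values are duplicate-plate medians.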

LCLC-97TM1 = system: LCLC-97TM1
In short: as §1

NCI-H596 = system: NCI-H596
In short: as §1

NCI-H1437 = system: NCI-H1437
In short: as §1

NCI-H2342 = system: NCI-H2342
In short: as §1

NCI-H1355 = system: NCI-H1355
In short: as §1

NCI-H1703 = system: NCI-H1703
In short: as §1

A549 = system: A549
In short: as §1

IA-LM = system: IA-LM
In short: as §1

## CCNC(=O)c1noc(-c2cc(C(C)C)c(O)cc2O)c1-c1ccc(CN2CCOCC2)cc1 [Luminespib] + NC(=O)Nc1cc(-c2cccc(F)c2)sc1C(=O)N[C@H]1CCCNC1 [AZD7762] (partner 0.2 µM)
NCI-H1648; first compound 0.002 µM
  relative viability: 0.529
NCI-H1648; first compound 0.006325 µM
  relative viability: 0.603
NCI-H1648; first compound 0.02 µM
  relative viability: 0.875
NCI-H1648; first compound 0.06325 µM
  relative viability: 0.702
NCI-H1648; first compound 0.2 µM
  relative viability: 0.286
LCLC-97TM1; first compound 0.002 µM
  relative viability: 0.251
LCLC-97TM1; first compound 0.006325 µM
  relative viability: 0.22
LCLC-97TM1; first compound 0.02 µM
  relative viability: 0.111
LCLC-97TM1; first compound 0.06325 µM
  relative viability: 0.167
LCLC-97TM1; first compound 0.2 µM
  relative viability: 0.0727
NCI-H596; first compound 0.002 µM
  relative viability: 1.11
NCI-H596; first compound 0.006325 µM
  relative viability: 1.17
NCI-H596; first compound 0.02 µM
  relative viability: 0.857
NCI-H596; first compound 0.06325 µM
  relative viability: 0.934
NCI-H596; first compound 0.2 µM
  relative viability: 0.879
NCI-H1437; first compound 0.002 µM
  relative viability: 1.11
NCI-H1437; first compound 0.006325 µM
  relative viability: 1.04
NCI-H1437; first compound 0.02 µM
  relative viability: 1.15
NCI-H1437; first compound 0.06325 µM
  relative viability: 0.785
NCI-H1437; first compound 0.2 µM
  relative viability: 0.278
NCI-H2342; first compound 0.002 µM
  relative viability: 0.472
NCI-H2342; first compound 0.006325 µM
  relative viability: 0.434
NCI-H2342; first compound 0.02 µM
  relative viability: 0.371
NCI-H2342; first compound 0.06325 µM
  relative viability: 0.492
NCI-H2342; first compound 0.2 µM
  relative viability: 0.26
NCI-H1355; first compound 0.002 µM
  relative viability: 0.822
NCI-H1355; first compound 0.006325 µM
  relative viability: 0.693
NCI-H1355; first compound 0.02 µM
  relative viability: 0.526
NCI-H1355; first compound 0.06325 µM
  relative viability: 0.324
NCI-H1355; first compound 0.2 µM
  relative viability: 0.145
NCI-H1703; first compound 0.002 µM
  relative viability: 0.146
NCI-H1703; first compound 0.006325 µM
  relative viability: 0.114
NCI-H1703; first compound 0.02 µM
  relative viability: 0.149
NCI-H1703; first compound 0.06325 µM
  relative viability: 0.115
NCI-H1703; first compound 0.2 µM
  relative viability: 0.114

## Cc1cn(-c2cc(NC(=O)c3ccc(C)c(Nc4nccc(-c5cccnc5)n4)c3)cc(C(F)(F)F)c2)cn1 [Nilotinib] + Nc1ncn([C@H]2C[C@H](O)[C@@H](CO)O2)c(=O)n1 [Decitabine] (partner 2 µM)
NCI-H1648; first compound 0.001 µM
  relative viability: 0.588
NCI-H1648; first compound 0.003162 µM
  relative viability: 0.496
NCI-H1648; first compound 0.01 µM
  relative viability: 0.476
NCI-H1648; first compound 0.03162 µM
  relative viability: 0.497
NCI-H1648; first compound 0.1 µM
  relative viability: 0.469
LCLC-97TM1; first compound 0.001 µM
  relative viability: 0.201
LCLC-97TM1; first compound 0.003162 µM
  relative viability: 0.283
LCLC-97TM1; first compound 0.01 µM
  relative viability: 0.279
LCLC-97TM1; first compound 0.03162 µM
  relative viability: 0.321
NCI-H1437; first compound 0.001 µM
  relative viability: 0.562
NCI-H1437; first compound 0.003162 µM
  relative viability: 0.632
NCI-H1437; first compound 0.01 µM
  relative viability: 0.625
NCI-H1437; first compound 0.03162 µM
  relative viability: 0.545
NCI-H1437; first compound 0.1 µM
  relative viability: 0.671
A549; first compound 0.001 µM
  relative viability: 0.199
A549; first compound 0.01 µM
  relative viability: 0.386
A549; first compound 0.03162 µM
  relative viability: 0.198
A549; first compound 0.1 µM
  relative viability: 0.116
NCI-H2342; first compound 0.001 µM
  relative viability: 0.704
NCI-H2342; first compound 0.003162 µM
  relative viability: 0.735
NCI-H2342; first compound 0.01 µM
  relative viability: 0.666
NCI-H2342; first compound 0.03162 µM
  relative viability: 0.591
NCI-H2342; first compound 0.1 µM
  relative viability: 0.754
NCI-H1355; first compound 0.001 µM
  relative viability: 0.355
NCI-H1355; first compound 0.003162 µM
  relative viability: 0.381
NCI-H1355; first compound 0.01 µM
  relative viability: 0.382
NCI-H1355; first compound 0.03162 µM
  relative viability: 0.408
NCI-H1355; first compound 0.1 µM
  relative viability: 0.418

## Cc1csc(=NC2CCCCC2)n1/N=C/c1ccc(O)c(O)c1O [MIM1] + O=C(CCCCCCC(=O)Nc1ccccc1)NO [Vorinostat] (partner 1 µM)
NCI-H1648; first compound 0.2 µM
  relative viability: 0.431
NCI-H1648; first compound 0.6325 µM
  relative viability: 0.396
NCI-H1648; first compound 2 µM
  relative viability: 0.337
NCI-H1648; first compound 6.325 µM
  relative viability: 0.404
NCI-H1648; first compound 20 µM
  relative viability: 0.206
LCLC-97TM1; first compound 0.2 µM
  relative viability: 0.594
LCLC-97TM1; first compound 0.6325 µM
  relative viability: 0.23
LCLC-97TM1; first compound 2 µM
  relative viability: 0.719
LCLC-97TM1; first compound 6.325 µM
  relative viability: 0.236
LCLC-97TM1; first compound 20 µM
  relative viability: 0.0643
NCI-H596; first compound 0.2 µM
  relative viability: 0.719
NCI-H596; first compound 0.6325 µM
  relative viability: 0.722
NCI-H596; first compound 2 µM
  relative viability: 0.561
NCI-H596; first compound 6.325 µM
  relative viability: 0.559
NCI-H596; first compound 20 µM
  relative viability: 0.337
NCI-H1437; first compound 0.2 µM
  relative viability: 0.712
NCI-H1437; first compound 0.6325 µM
  relative viability: 0.843
NCI-H1437; first compound 2 µM
  relative viability: 0.833
NCI-H1437; first compound 6.325 µM
  relative viability: 0.313
NCI-H1437; first compound 20 µM
  relative viability: 0.197
NCI-H2342; first compound 0.2 µM
  relative viability: 0.727
NCI-H2342; first compound 0.6325 µM
  relative viability: 0.719
NCI-H2342; first compound 2 µM
  relative viability: 0.774
NCI-H2342; first compound 6.325 µM
  relative viability: 0.589
NCI-H2342; first compound 20 µM
  relative viability: 0.905
NCI-H1355; first compound 0.2 µM
  relative viability: 0.673
NCI-H1355; first compound 0.6325 µM
  relative viability: 0.604
NCI-H1355; first compound 2 µM
  relative viability: 0.693
NCI-H1355; first compound 6.325 µM
  relative viability: 0.544
NCI-H1355; first compound 20 µM
  relative viability: 0.487
IA-LM; first compound 0.2 µM
  relative viability: 0.883
IA-LM; first compound 0.6325 µM
  relative viability: 0.935
IA-LM; first compound 2 µM
  relative viability: 0.93
IA-LM; first compound 6.325 µM
  relative viability: 0.57
IA-LM; first compound 20 µM
  relative viability: 0.159
